These results are taken from ChEMBL document CHEMBL3046960, “Are traditional neem extract preparations as efficient as a commercial formulation of azadirachtin A?” (2011).

A word on the mortality: it is the share of the test organisms that died.

Common to all, as to assay type: functional
In one assay the test system is Bemisia tabaci. As to the kind of experiment: Insecticidal activity against Bemisia tabaci (sweet potato whitefly) in cucumber plant assessed as mortality rate at 25 mg/L relative to control.
In a further assay the test system is Spodoptera littoralis. The assay can be described thus: Insecticidal activity against third to fourth instar larvae Spodoptera littoralis in broad bean plant assessed as mortality rate at 25 mg/L (reference value: 33.3%).
In assay [1] the test system is Macrosteles quadripunctulatus. As to the kind of experiment: Insecticidal activity against third to fourth-instar nymphs stage Macrosteles quadripunctulatus assessed as mortality rate at 25 mg/L (reference value: 11.4%).

With `C/C=C(\C)C(=O)O[C@H]1C[C@@H](OC(C)=O)[C@@]2(C(=O)OC)CO[C@H]3[C@@H](O)[C@@](C)([C@]45O[C@@]4(C)[C@H]4C[C@@H]5O[C@@H]5OC=C[C@@]54O)[C@H]4[C@]1(CO[C@]4(O)C(=O)OC)[C@@H]32` [AZADIRACTIN], the mortality at 25 µg/mL with Bemisia tabaci amounted to 94.1%; in the assay with Spodoptera littoralis, 100%; in assay [1], 85.7%.

As to `C/C=C(\C)C(=O)O[C@H]1C[C@@H](OC(C)=O)[C@@]2(C(=O)OC)CO[C@H]3[C@@H](O)[C@@](C)([C@]45O[C@@]4(C)[C@@H]4C[C@H]5O[C@@H]5OC=C[C@@]54O)[C@H]4[C@]1(CO[C@]4(O)C(=O)OC)[C@@H]32` [AZADIRACHTIN A], the mortality at 25 µg/mL came to 82.8% in the assay with Bemisia tabaci, 83.5% in the assay on Spodoptera littoralis and 30% in assay [1].
